Laboratory results: US20240010635A1, “NOVEL INDIRUBIN DERIVATIVES HAVING HETEROBICYCLIC MOIETIES AND THE USE THEREOF” (priority 2022, published 2024)
Residue numbers refer to the chain shown, from its start.

Tests used:
Format in all cases: biochemical
FLT3 WT = biological target: T1, FLT3 WT (Homo sapiens, UniProt P36888); assay: ADP-Glo kinase assay, FLT3 WT; conditions: recombinant FLT3, ADP-Glo, 120 min room temperature; read-out: Enzyme activity (IC50, nM) FLT3 WT
T1 construct: Recombinant proteins containing the FLT3 and FLT3 (D835Y) domains were purchased from Promega; purchased Promega V4064
T1 sequence (P36888 610-943 limits assumed): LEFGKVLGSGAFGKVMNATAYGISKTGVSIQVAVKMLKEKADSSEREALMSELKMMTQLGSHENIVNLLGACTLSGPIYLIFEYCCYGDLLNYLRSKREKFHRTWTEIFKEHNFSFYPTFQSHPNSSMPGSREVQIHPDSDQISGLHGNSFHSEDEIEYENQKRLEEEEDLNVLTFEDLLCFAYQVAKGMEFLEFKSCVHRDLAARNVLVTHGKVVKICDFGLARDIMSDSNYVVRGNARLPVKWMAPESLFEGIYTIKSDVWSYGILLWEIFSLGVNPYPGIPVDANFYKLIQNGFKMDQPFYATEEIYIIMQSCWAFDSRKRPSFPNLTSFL
Experimental: (§1) FLT3 activity inhibition was measured by ADP-Glo kinase assay (Promega, cat #V9101). ADP-Glo kinase analysis method is an emission ADP detect method which measures kinase activity by quantification of ADP amount produced during kinase reaction and provides uniform high-throughput screening method.
(§2) Analysis performed in two steps. First, after kinase reaction, ADP-Glo™ reagent of equal volume was added to finish kinase reaction, and then the rest ATP was exhausted. Second, Kinase Detection Reagent was added to convert ADP to ATP and newly synthesized ATP was measured by luciferase/luciferin reaction at the same time. Generated light was measured by using luminometer. The measured luminescence amount can be applied to the ATP→ADP standard conversion curve to confirm the correlation with the ADP concentration.
(§3) Recombinant proteins containing the FLT3 and FLT3 (D835Y) domains were purchased from Promega (cat #V4064, cat #V4514), respectively. According to the manufacturer's instructions, optimal enzyme, ATP, and substrate concentration were established using the ADP-Glo™ Kinase Assay (Promega, USA). Kinase reaction buffer 5× (200 mM Tris-HCl, pH 7.5, 100 mM MgCl2, 0.5 mg/ml BSA) was diluted and used, and the diluted compound of the present invention (5×, 1 μl), FLT3 enzyme or FLT3/D835Y enzyme (2.5×, 2 μl) and substrate/ATP mixture (2.5×, 2 μl), were mixed sequentially and reacted at room temperature for 120 minutes. Then, ADP-Glo™ Reagent (5 μl) was added and reacted for 40 min at room temperature. Finally, after adding a reagent for detection (Kinase Detection Reagent, 10 μl), reacting at room temperature for 30 min, and then phosphorylation of substrate peptide was measured by measuring luciferase signal (Integration time 0.5-1 second) using SpectraMax ID5 reader (Molecular Devices LLC., San Jose, CA, USA). IC50 was calculated by nonlinear regression using Prism version 5.01 (GrapghPad).

FLT3 D835Y = biological target: T2, FLT3 D835Y (Homo sapiens, UniProt P36888, D835Y); assay: ADP-Glo kinase assay, FLT3 D835Y; conditions: recombinant FLT3 (D835Y), 120 min room temperature, read-out: Enzyme activity (IC50, nM) FLT3 D835Y
T2 construct: Recombinant proteins containing the FLT3 and FLT3 (D835Y) domains were purchased from Promega; purchased Promega V4514
T2 sequence (P36888 610-943 D835Y limits assumed): T1 sequence (P36888 610-943 limits assumed) with D226Y
Experimental: as §1, §2, §3

RET V804L = biological target: T3, RET V804L (Homo sapiens, UniProt P07949, V804L); assay: ADP-Glo kinase assay, RET V804L; conditions: recombinant RET (V804L), 120 min room temperature, read-out: Enzyme activity (IC50, nM) RET V804L
T3 construct: Recombinant proteins containing RET wt, RET (M918T) and RET (V804L) domains were purchased from Promega; purchased Promega V4473
T3 sequence (P07949 724-1016 V804L limits assumed): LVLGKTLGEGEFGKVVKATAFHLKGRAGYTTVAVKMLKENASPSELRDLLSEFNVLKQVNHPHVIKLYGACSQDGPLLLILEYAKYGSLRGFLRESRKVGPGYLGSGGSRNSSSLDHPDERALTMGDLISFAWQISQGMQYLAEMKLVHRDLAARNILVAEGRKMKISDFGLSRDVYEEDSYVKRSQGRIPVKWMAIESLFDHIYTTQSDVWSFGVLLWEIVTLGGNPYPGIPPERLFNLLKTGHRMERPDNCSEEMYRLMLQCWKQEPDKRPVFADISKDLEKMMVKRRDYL
Experimental: as §2
Recombinant proteins containing RET wt, RET (M918T) and RET (V804L) domains were purchased from Promega (cat #V8061, cat #VA7274, cat #V4473), respectively. According to the manufacturer's instructions, optimal enzyme, ATP, and substrate concentration were established using ADP-Glo™ Kinase Assay (Promega, USA). […] Then, ADP-Glo™ Reagent (5 μl) was added and reacted at room temperature for further 40 min. Lastly, Kinase Detection Reagent (10 μl) was added and reacted for 30 min more at room temperature, and then phosphorylation of substrate peptide was measured by measuring luciferase signal (Integration time 0.5-1 second) using SpectraMax ID5 reader (Molecular Devices LLC., San Jose, CA, USA). IC50 was calculated by nonlinear regression using Prism version 5.01 (GrapghPad).

Compound `O=C1Nc2ccc(F)cc2/C1=C1/Nc2ccccc2/C1=N\OCC(=O)N1C[C@H]2C[C@@H]1CN2` [Example 20, (2Z,3E)-3-((2-((1R,4R)-2,5-diazabicyclo[2.2.1]heptan-2-yl)-2-oxoethoxy)imino)-5′-fluoro-[2,3′-biindolinylidene]-2′-one] has an IC50 (FLT3 WT) of 2.94 nM, an IC50 (FLT3 D835Y) of 0.271 nM and an IC50 (RET V804L) of 1.04 nM.
